Patent US20250009745A1, “CDK INHIBITOR” (SHANGHAI QILU PHARMACEUTICAL RESEARCH AND DEVELOPMENT …, priority 2021, published 2025)

Columns and labels:
CDK2 = target: T1, CDK2 (Homo sapiens, UniProt P24941); test: CDK enzymology experiment in vitro, capillary mobility shift assay (MSA); type: biochemical; details: read-out: CDK2 (nM) inhibitory IC50
T1 construct: purchased Carna Company
Procedure: (§1) CDK1/CDK2/CDK4/CDK6/CDK7/CDK9 were purchased from Carna Company; Carliper substrate CTD3/substrate 18/substrate 8 were purchased from Gil Biochemical Company; Dinaciclib/Palbociclib were purchased from Selleckchem Company; DMSO was purchased from Sigma Company; 384-well plates were purchased from Corning Company.
(§2) • (1) Preparation of 1×Kinase buffer. • (2) Preparation of compound concentration gradient: Test concentration of the test compound was started at 1 μM, 10 μM or 30 μM, 3-fold dilution, 10 concentrations, detected in duplicate. The test compound was diluted to a 100-fold final concentration with 100% DMSO solution in a 384 source plate. Liquid handler Echo 550 was used to transfer 250 nL of 100-fold final concentration of the compound to the target plate 384-well plate. […] The 384-well plate was centrifuged at 1000 rpm for 30 seconds, and shaken to mix uniformly. • (10) The conversion rate was read with Caliper EZ Reader.
(§3) Where, conversion %_sample is the readings of conversion rate of the sample; conversion %_min: the average value of negative control wells, representing the readings of conversion rate of wells without enzyme activity; conversion %_max: the average value of positive control wells, representing the readings of conversion rate of wells without compound inhibition.
(§4) Taking the log value of the concentration as the X-axis, and the percentage inhibition rate as the Y-axis, the dose-effect curve was fitted using the log(inhibitor) vs. response—Variable slope of the analysis software GraphPad Prism 5 so as to obtain the IC50 value of each compound on the enzyme activity.
(§5) Y=Bottom+(Top−Bottom)/(1+10^((Log IC50−X)*HillSlope)). Calculation formula: […]

CDK4 = target: T2, CDK4 (Homo sapiens, UniProt P11802); test: as above; type: biochemical; details: read-out: CDK4 (nM) inhibitory IC50
T2 construct: purchased Carna Company
Procedure: as §1, §2, §3, §4, §5

T2 sequence (P11802 whole entry): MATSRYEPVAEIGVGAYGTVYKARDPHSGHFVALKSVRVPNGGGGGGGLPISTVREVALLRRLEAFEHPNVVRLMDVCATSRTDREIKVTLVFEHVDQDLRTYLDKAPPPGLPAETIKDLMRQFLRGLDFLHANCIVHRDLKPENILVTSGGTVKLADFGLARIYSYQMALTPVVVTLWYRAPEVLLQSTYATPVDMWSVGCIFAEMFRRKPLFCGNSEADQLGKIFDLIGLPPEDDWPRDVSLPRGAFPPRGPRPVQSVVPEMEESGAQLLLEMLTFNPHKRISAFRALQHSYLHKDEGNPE
T2 sequence (P30281 whole entry partner): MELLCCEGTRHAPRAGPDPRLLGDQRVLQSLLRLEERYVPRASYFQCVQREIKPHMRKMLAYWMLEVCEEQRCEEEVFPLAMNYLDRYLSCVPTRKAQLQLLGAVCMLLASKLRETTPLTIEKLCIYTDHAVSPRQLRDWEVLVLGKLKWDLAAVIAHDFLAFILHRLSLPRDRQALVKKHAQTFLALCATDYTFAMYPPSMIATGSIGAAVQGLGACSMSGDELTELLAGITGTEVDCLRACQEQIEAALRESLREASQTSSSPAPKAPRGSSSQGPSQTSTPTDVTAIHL

| IC50 (CDK2) | IC50 (CDK4) | SMILES |
| --- | --- | --- |
| 2.5 to 10 nM | 10 to 50 nM | Cn1cc(S(=O)(=O)N2CCC(Nc3ncc(C#N)c(N[C@@H]4CCC[C@@]4(C)O)n3)CC2)cn1 (racemic) [Example 19] |
| 2.5 to 10 nM | 10 to 50 nM | Cn1cc(S(=O)(=O)N2CCC(Nc3ncc(C#N)c(O[C@H]4CC[C@H](O)C4)n3)CC2)cn1 (relative stereo) [Compound 55] |
| 0.5 to 2.5 nM | 10 to 50 nM | Cn1cc(S(=O)(=O)N2CCC(Nc3ncc(C#N)c(O[C@H]4CC[C@@H](O)C4)n3)CC2)cn1 (relative stereo) [Compound 58] |
| 2.5 to 10 nM | 10 to 50 nM | Cn1cc(S(=O)(=O)N2CCC(Nc3ncc(C#N)c(O[C@@H]4CCC[C@@H]4O)n3)CC2)cn1 (relative stereo) [Compound 65] |
| 2.5 to 10 nM | 10 to 50 nM | Cn1cc(S(=O)(=O)N2CCC(Nc3ncc(C#N)c(O[C@@H]4CCC[C@H]4O)n3)CC2)cn1 (relative stereo) [Compound 68] |
| 2.5 to 10 nM | 50 to 100 nM | Cn1cc(S(=O)(=O)N2CCC(Nc3ncc(C(F)(F)F)c(O[C@@H]4COC[C@@H]4O)n3)CC2)cn1 (relative stereo) [Compound 111] |
| 2.5 to 10 nM | 10 to 50 nM | Cn1cc(S(=O)(=O)N2CCC(Nc3ncc(C#N)c(N[C@H]4CC[C@H](O)C4)n3)CC2)cn1 (single isomer, unassigned) [Compound 52] |
| 2.5 to 10 nM | 10 to 50 nM | Cn1cc(S(=O)(=O)N2CCC(Nc3ncc(C#N)c(N[C@@H]4CC[C@@H](O)C4)n3)CC2)cn1 (single isomer, unassigned) [Compound 53] |
| 2.5 to 10 nM | 50 to 100 nM | Cn1cc(S(=O)(=O)N2CCC(Nc3ncc(C#N)c(O[C@H]4CC[C@H](O)C4)n3)CC2)cn1 (single isomer, unassigned) [Compound 56] |
| 2.5 to 10 nM | 10 to 50 nM | Cn1cc(S(=O)(=O)N2CCC(Nc3ncc(C#N)c(O[C@@H]4CC[C@@H](O)C4)n3)CC2)cn1 (single isomer, unassigned) [Compound 57] |
| 0.5 to 2.5 nM | 2.5 to 10 nM | Cn1cc(-c2ccc(S(=O)(=O)N3CCC(Nc4ncc(C#N)c(N[C@@H]5CC[C@@H](O)C5)n4)CC3)cc2)cn1 (single isomer, unassigned) [Compound 63] |
| 2.5 to 10 nM | 10 to 50 nM | Cn1cc(S(=O)(=O)N2CCC(Nc3ncc(C#N)c(O[C@H]4CCC[C@@H]4O)n3)CC2)cn1 (single isomer, unassigned) [Compound 66] |
| 2.5 to 10 nM | 10 to 50 nM | Cn1cc(S(=O)(=O)N2CCC(Nc3ncc(C#N)c(O[C@@H]4CCC[C@H]4O)n3)CC2)cn1 (single isomer, unassigned) [Compound 67] |
| 2.5 to 10 nM | 10 to 50 nM | Cn1cc(S(=O)(=O)N2CCC(Nc3ncc(C#N)c(N[C@H]4CC[C@@H](O)C4)n3)CC2)cn1 (single isomer, unassigned) [Example 12] |
| 2.5 to 10 nM | 10 to 50 nM | Cn1cc(S(=O)(=O)N2CCC(Nc3ncc(C#N)c(N[C@@H]4CC[C@H](O)C4)n3)CC2)cn1 (single isomer, unassigned) [Example 13] |
| 10 to 50 nM | 100 to 1000 nM | Cn1cc(S(=O)(=O)N2CCC(Nc3ncc(C#N)c(N[C@@H]4CCC[C@@]4(C)O)n3)CC2)cn1 (single isomer, unassigned) [Example 20] |
| 2.5 to 10 nM | 10 to 50 nM | Cn1cc(S(=O)(=O)N2CCC(Nc3ncc(C#N)c(N[C@H]4CCC[C@]4(C)O)n3)CC2)cn1 (single isomer, unassigned) [Example 21] |
| 10 to 50 nM | 10 to 50 nM | CC(C)S(=O)(=O)N1CCC(Nc2ncc(C#N)c(NC3CCCC3)n2)CC1 [Compound 29] |
| 2.5 to 10 nM | 10 to 50 nM | Cn1ccc(S(=O)(=O)N2CCC(Nc3ncc(C#N)c(NC4CCCC4)n3)CC2)n1 [Compound 33] |
| 2.5 to 10 nM | 2.5 to 10 nM | N#Cc1cnc(NC2CCN(S(=O)(=O)c3ccccn3)CC2)nc1NC1CCCC1 [Compound 36] |
| 2.5 to 10 nM | 2.5 to 10 nM | Cn1cc(S(=O)(=O)N2CCC(Nc3ncc(C#N)c(NC4CCCC4(F)F)n3)CC2)cn1 (stereo not shown) [Compound 37] |
| 10 to 50 nM | 50 to 100 nM | C[C@@H]1COCCN1c1nc(NC2CCN(S(=O)(=O)c3cnn(C)c3)CC2)ncc1C#N [Compound 38] |
| 0.5 to 2.5 nM | 2.5 to 10 nM | CN(c1nc(NC2CCN(S(=O)(=O)c3cnn(C)c3)CC2)ncc1C#N)C1CCCC1 [Compound 39] |
| 0.5 to 2.5 nM | 2.5 to 10 nM | Cn1cc(S(=O)(=O)N2CCC(Nc3ncc(C(F)(F)F)c(OC4CCCC4)n3)CC2)cn1 [Compound 40] |
| 2.5 to 10 nM | 10 to 50 nM | Cn1cc(S(=O)(=O)N2CCC(Nc3ncc(C#N)c(NC4CCC(F)(F)C4)n3)CC2)cn1 (stereo not shown) [Compound 41] |
| 10 to 50 nM | 10 to 50 nM | Cn1cc(S(=O)(=O)N2CCC(Nc3ncc(C#N)c(NC(C)(C)C)n3)CC2)cn1 [Compound 42] |

| IC50 (CDK2) | IC50 (CDK4) | SMILES |
| --- | --- | --- |
| 10 to 50 nM | 100 to 1000 nM | Cn1cc(S(=O)(=O)N2CCC(Nc3ncc(C#N)c(N[C@@H]4CCOC4)n3)CC2)cn1 [Compound 43] |
| 10 to 50 nM | 100 to 1000 nM | Cn1cc(S(=O)(=O)N2CCC(Nc3ncc(C#N)c(N[C@H]4CCC[C@@H]4O)n3)CC2)cn1 [Compound 46] |
| 2.5 to 10 nM | 10 to 50 nM | Cn1cc(S(=O)(=O)N2CCC(Nc3ncc(C#N)c(N[C@H]4CCC[C@H]4O)n3)CC2)cn1 [Compound 48] |
| 0.5 to 2.5 nM | 10 to 50 nM | Cn1cc(-c2ccc(S(=O)(=O)N3CCC(Nc4ncc(C#N)c(N[C@@H]5CCC[C@H]5O)n4)CC3)cc2)cn1 [Compound 50] |
| 0.5 to 2.5 nM | 10 to 50 nM | Cn1cc(S(=O)(=O)N2CCC(Nc3ncc(C(F)(F)F)c(N[C@@H]4CCC[C@H]4O)n3)CC2)cn1 [Compound 54] |
| 2.5 to 10 nM | 2.5 to 10 nM | Cn1cc(-c2ccc(S(=O)(=O)N3CCC(Nc4ncc(C#N)c(N[C@H]5CCC[C@@H]5O)n4)CC3)cc2)cn1 [Compound 59] |
| 0.5 to 2.5 nM |  | Cn1cc(-c2ccc(S(=O)(=O)N3CCC(Nc4ncc(C#N)c(N[C@@H]5CCC[C@H]5O)n4)CC3)cc2)cn1 [Compound 60] |
| 0.5 to 2.5 nM | 2.5 to 10 nM | Cn1cc(-c2ccc(S(=O)(=O)N3CCC(Nc4ncc(C#N)c(N[C@@H]5CCC[C@@H]5O)n4)CC3)cc2)cn1 [Compound 61] |
| 2.5 to 10 nM | 10 to 50 nM | Cn1cc(S(=O)(=O)N2CCC(Nc3ncc(C#N)c(O[C@H]4CCOC4)n3)CC2)cn1 [Compound 64] |
| 10 to 50 nM | 100 to 1000 nM | C[C@@H](CO)Nc1nc(NC2CCN(S(=O)(=O)c3cnn(C)c3)CC2)ncc1C#N [Compound 69] |
| 10 to 50 nM | 50 to 100 nM | C[C@H](CO)Nc1nc(NC2CCN(S(=O)(=O)c3cnn(C)c3)CC2)ncc1C#N [Compound 70] |
| 2.5 to 10 nM | 10 to 50 nM | CN1CC[C@@H](Nc2nc(NC3CCN(S(=O)(=O)c4cnn(C)c4)CC3)ncc2C#N)C1 [Compound 71] |
| 2.5 to 10 nM | 10 to 50 nM | CN1CC[C@H](Nc2nc(NC3CCN(S(=O)(=O)c4cnn(C)c4)CC3)ncc2C#N)C1 [Compound 72] |
| 50 to 100 nM | 100 to 1000 nM | CN1CC[C@@H](Oc2nc(NC3CCN(S(=O)(=O)c4cnn(C)c4)CC3)ncc2C#N)C1 [Compound 73] |
| 10 to 50 nM | 50 to 100 nM | CN1CC[C@H](Oc2nc(NC3CCN(S(=O)(=O)c4cnn(C)c4)CC3)ncc2C#N)C1 [Compound 74] |
| 10 to 50 nM | 10 to 50 nM | C[C@H]1COCCN1c1nc(NC2CCN(S(=O)(=O)c3cnn(C)c3)CC2)ncc1C#N [Compound 75] |
| 2.5 to 10 nM | 10 to 50 nM | Cn1cc(S(=O)(=O)N2CCC(Nc3ncc(C#N)c(NC4CCC4)n3)CC2)cn1 [Compound 76] |
| 2.5 to 10 nM | 10 to 50 nM | Cn1cc(S(=O)(=O)N2CCC(Nc3ncc(C#N)c(N[C@H]4C[C@@H](O)C4)n3)CC2)cn1 [Compound 77] |
| 2.5 to 10 nM | 10 to 50 nM | Cn1cc(S(=O)(=O)N2CCC(Nc3ncc(C#N)c(NC4CC(F)(F)C4)n3)CC2)cn1 [Compound 78] |
| 2.5 to 10 nM | 10 to 50 nM | Cn1cc(S(=O)(=O)N2CCC(Nc3ncc(C#N)c(NC4CCCCC4)n3)CC2)cn1 [Compound 79] |
| 2.5 to 10 nM | 100 to 1000 nM | Cn1cc(S(=O)(=O)N2CCC(Nc3ncc(C#N)c(NC4COC4)n3)CC2)cn1 [Compound 80] |
| 10 to 50 nM | 100 to 1000 nM | Cn1cc(S(=O)(=O)N2CCC(Nc3ncc(C#N)c(NC4CCOCC4)n3)CC2)cn1 [Compound 81] |
| 2.5 to 10 nM | 10 to 50 nM | CN1CCC(S(=O)(=O)N2CCC(Nc3ncc(C#N)c(NC4CCCC4)n3)CC2)CC1 [Compound 85] |
| 0.5 to 2.5 nM | 10 to 50 nM | Cn1cc(S(=O)(=O)N2CCC(Nc3ncc(C(F)(F)F)c(O[C@@H]4CCOC4)n3)CC2)cn1 [Compound 88] |
| 10 to 50 nM | 50 to 100 nM | Cn1cc(S(=O)(=O)N2CCC(Nc3ncc(C#N)c(O[C@@H]4CCOC4)n3)CC2)cn1 [Compound 89] |
| 0.5 to 2.5 nM | 2.5 to 10 nM | N#Cc1cnc(NC2CCN(S(=O)(=O)c3ccc(C4=CCNCC4)cc3)CC2)nc1N[C@@H]1CCC[C@H]1O [Compound 91] |
